# Laboratory results from ChEMBL document CHEMBL5154750 (Bioorg Med Chem, 2022).
# Assays:
# HL-60 [1] = assay: Cytotoxicity against human HL-60 cells assessed as reduction in cell viability; format: functional, cell-based
# HCT-116 [2] = assay: Cytotoxicity against human HCT-116 cells assessed as cell viability at 1 uM relative to control; format: functional; conditions: read-out: Activity
# HCT-116 [3] = assay: Cytotoxicity against human HCT-116 cells assessed as cell viability at 10 uM relative to control; format: functional; conditions: read-out: Activity
# HL-60 [4] = assay: Cytotoxicity against human HL-60 cells assessed as cell viability at 10 uM relative to control; format: functional; conditions: read-out: Activity
# HL-60 [5] = assay: Cytotoxicity against human HL-60 cells assessed as cell viability at 1 uM relative to control; format: functional; conditions: read-out: Activity
# HCT-116 [6] = assay: Cytotoxicity against human HCT-116 cells assessed as reduction in cell viability; format: functional, cell-based
# HCT-116 [7] = assay: Growth inhibition of human HCT-116 cells at 1 uM relative to control; format: functional; design: scale not given: the % may be the effect or the level left
# [8] = Homo sapiens, HL-60, read-out: IC50
Structure (SMILES),IC50 (HL-60 [1]; [8]),viability at 1 µM (HCT-116 [2]),viability at 10 µM (HCT-116 [3]),viability at 10 µM (HL-60 [4]),viability at 1 µM (HL-60 [5]),IC50 (HL-60 [1]; hl-60),IC50 (HCT-116 [6]),Activity (HCT-116 [7])
O=C1C=C2C=C[C@@H]3C[C@]2(CN3Cc2ccccc2)O1,100 nM,100%,86%,3%,11%,–,–,–
CC(C)CN1C[C@]23C[C@H]1C=CC2=CC(=O)O3,–,83%,78%,1%,15%,–,–,–
COc1cccc2c1C(=O)c1c(O)c3c(c(O)c1C2=O)C[C@@](O)(C(=O)CO)C[C@@H]3O[C@H]1C[C@H](N)[C@H](O)[C@H](C)O1 [DOXORUBICIN],–,–,–,–,–,90 nM,10 nM,–
O=C1C=C2C(I)=C[C@@H]3C[C@]2(CN3Cc2ccccc2)O1,350 nM,5%,1%,0%,4%,–,60 nM,80.9%
O=C1C=C2C=C[C@@H]3C[C@@]2(O1)[C@H]1CCCCN31 [SECURININE],100 nM,98%,13%,0.4%,8%,–,8600 nM,–
